Results on one substance are retold here after US8486373B2, “Intramolecularly-quenched near infrared fluorescent probes” (The General Hospital Corporation, priority 1998, dated 2013).

A short description of the data set: Properties of commercially-available near infrared fluorochromes. It is filed as physicochemical. The settings on record: Cy5.5 free in solution, FIG. 3A. From the text:
Fluorescent probes with excitation and emission wavelengths in the near infrared spectrum are used, i.e., 650-1300 nm. Use of this portion of the electromagnetic spectrum maximizes tissue penetration and minimizes absorption by physiologically abundant absorbers such as hemoglobin (<650 nm) and water (>1200 nm). […] Table 1 summarizes information on the properties of six commercially-available near infrared fluorochromes, whose structures are shown in FIGS. 2A and 2B.

Take Cy5.5: the “emission wavelength / peak emission” value came to 694 nm.
